Laboratory results reported in article PMC8880313, “Discovery of Novel Andrographolide Derivatives as Antiviral Inhibitors against Human Enterovirus A71” (Pharmaceuticals, 2022).

Key:
CV-A6 = experiment: Post-treatment assay, antiviral spectrum; type: cell-based, Coxsackievirus A6
Method: (§1) We were also interested in the antiviral potential of ZAF-47 against other Enteroviruses. As such, we performed post-treatment assay on RD cells infected with other Enteroviruses such as CV-A16, CV-A6, Echo7, CV-B5, CV-A24 and EV-D68.
(§2) To determine the inhibitory profiles of the hits, post treatment assay was performed. Seeded 24-well plates, with 1.5 × 10^5 RD cells per well, were incubated overnight at 37 °C with 5% CO2. The seeded cells were infected with EV-A71 (100 µL per well, MOI = 1) for 1 h at 37 °C with 5% CO2 and then rinsed with 1 mL of PBS twice. Different concentrations of the hits were used to treat the infected cells for 12 h at 37 °C with 5% CO2. At 12 hpi, the plates were frozen and thawed for 2 cycles (−80°C; 37 °C) before collection of supernatants to measure the viral titres via viral plaque assay.
(§3) Measurement of the viral titres from collected supernatants was derived from viral plaque assays. To do this, 24-well plates, seeded with 2.4 × 10^5 RD cells per well, were used in plaque assays for EV-A71, EV-D68, Echo7, CV-A6, CV-A16 and CV-A24 while 24-well plates, seeded with 1.2 × 10^5 Vero cells per well, were used in plaque assays for CV-B5. Seeded cells were incubated overnight at 37 °C with 5% CO2. […] Subsequent formation of viral plaques was counted manually to quantify the viral titre in PFU/mL […]

EV-A71 IRES = experiment: Bicistronic luciferase reporter assay; type: cell-based, human enterovirus A71 (EV-A71) strain 41; conditions: RD cells, various concentrations, 12 h
Method: To validate this finding, we also transfected RD cells with a bicistronic reporter construct which had been established and validated previously. Similarly, the transfected cells were treated with ZAF-47 at various concentrations and then incubated for 12 h before luminescence detection. The construct comprises a human cytomegalovirus (CMV) promoter with a downstream Renilla luciferase (R Luc) gene and an EV-A71 strain 41 IRES with a downstream firefly luciferase (F Luc) gene (Figure 4f). This means that R Luc can be expressed by the CMV promoter via cap-dependent translation while F Luc can be expressed by the EV-A71 IRES via cap-independent translation. An accurate determination of IRES activity would be to use the ratio of F Luc luminescence reading to R Luc luminescence reading (F Luc/R Luc). The transfected cells were also treated with negative control, DMSO and positive control, apigenin, an EV-A71 IRES inhibitor [53].
Seeded 96-well white plates (Corning), with 2 × 10^4 RD cells per well, were incubated overnight at 37 °C with 5% CO2. After which, a bicstronic luciferase reporter construct was used to transfect the cells, as described in our previous work, for 12 h at 37 °C with 5% CO2. […]

CV-A24 = experiment: Post-treatment assay, antiviral spectrum; type: cell-based, Coxsackievirus A24
Method: as §1, §2, §3

EV-A71 virions = experiment: Co-treatment assay; type: cell-based, human enterovirus A71 (EV-A71) strain 41; conditions: 20 µM with virions for 30 min, 12 hpi
Method: To confirm this finding, assays to investigate the effect of ZAF-47 on EV-A71 entry into cells were performed. With pre-treatment assay, we first treated the cells with different concentrations of ZAF-47 before subjecting them to EV-A71 infection. The aim was to investigate if ZAF-47 was able to bind to host surface receptors which would prevent the virions from binding and thus blocking viral entry. […] Even at the highest concentration, the reduction in viral titre (0.8 log10 PFU/mL decrease) was not as pronounced as post-treatment and could likely be due to drug toxicity. Thus, it is unlikely that ZAF-47 inhibits EV-A71 infection by binding with host receptors to block viral entry. With co-treatment assay, we first treated EV-A71 virions with ZAF-47 for 30 min before infecting the cells. The aim was to investigate if ZAF-47 was able to bind to viral surface proteins which would prevent the virions from binding to the host receptors and thus blocking viral entry. […] Thus, it is unlikely that ZAF-47 blocks EV-A71 entry into host cells by binding to viral surface proteins. Instead, using entry bypass assay, we were able to deduce that ZAF-47 most likely targets EV-A71 post-entry stages. […]
Seeded 24-well plates, with 1.5 × 10^5 RD cells per well, were incubated overnight at 37 °C with 5% CO2. […] The plates were frozen down at 12 hpi for viral titre quantification using viral plaque assay.

Compound: CC(=O)OC[C@]1(C)C(=O)CC[C@@]2(C)C(C/C=C3/C(=O)OC[C@@H]3Oc3cccc4cccnc34)=C(C)CC[C@@H]21 [ZAF-47, (14β)-(8′-Quinolinoxy)-3-ketone-9-dehydro-17-hydro-19-acetoxy–andrographolide]
- viral titre (CV-A6; 10 µM, CV-A6-infected RD cells): reducing the viral titres of the above-listed enteroviruses significantly
- IC50 (CV-A6; CVA6, CV-A6, Enterovirus A, drug treatment duration 96 h, RD cells): 3160 nM
- IRES activity (F Luc/R Luc) (EV-A71 IRES): did not reduce IRES activity
- viral titre (CV-A24; 10 µM, CV-A24-infected RD cells): reducing the viral titres of the above-listed enteroviruses significantly
- IC50 (CV-A24; CVA24, CV-A24, Enterovirus C, drug treatment duration 12 h, RD cells): 1090 nM
- viral titre versus DMSO treatment (EV-A71 virions): no significant difference
